Values quoted from earlier work as cited in patent US9987239B1, “Pharmaceutical retinoid preparation for topical use” (Rey Ventures, LLC, priority 2017, dated 2018).

solubility of adapalene in ethyl alcohol (ethyl alcohol): 1000 µg/mL
solubility of adapalene (water) (water): 0.004 µg/mL
SMILES: COc1ccc(-c2ccc3cc(C(=O)O)ccc3c2)cc1C12CC3CC(CC(C3)C1)C2 [adapalene, 6-[3-(1-adamantyl)-4-methoxyphenyl] naphthalene-2-carboxylic]
